PubChem BioAssay (NCI)
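Results reflect a 48-hour exposure of cells in 96-well plates to compound at five concentrations. Here, GI50 denotes the concentration required for 50% inhibition of growth. TGI denotes the concentration required for complete inhibition of growth.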

Columns and labels:
Test in all cases: NCI-60 cell line screen, 48 h
OVCAR-8 ovarian = system: OVCAR-8 ovarian
HOP-62 NSCLC = system: HOP-62 NSCLC
HCC-2998 colon = system: HCC-2998 colon
K-562 leukemia = system: K-562 leukemia
HCT-116 colon = system: HCT-116 colon
U251 CNS = system: U251 CNS
SK-MEL-5 melanoma = system: SK-MEL-5 melanoma
SF-539 CNS = system: SF-539 CNS
HOP-92 NSCLC = system: HOP-92 NSCLC
HL-60(TB) leukemia = system: HL-60(TB) leukemia

SMILES	GI50 (OVCAR-8 ovarian) [µM]	TGI (OVCAR-8 ovarian) [µM]	GI50 (HOP-62 NSCLC) [µM]	TGI (HOP-62 NSCLC) [µM]	GI50 (HCC-2998 colon) [µM]	TGI (HCC-2998 colon) [µM]	GI50 (K-562 leukemia) [µM]	TGI (K-562 leukemia) [µM]	GI50 (HCT-116 colon) [µM]	TGI (HCT-116 colon) [µM]	GI50 (U251 CNS) [µM]	TGI (U251 CNS) [µM]	GI50 (SK-MEL-5 melanoma) [µM]	TGI (SK-MEL-5 melanoma) [µM]	GI50 (SF-539 CNS) [µM]	TGI (SF-539 CNS) [µM]	GI50 (HOP-92 NSCLC) [µM]	TGI (HOP-92 NSCLC) [µM]	GI50 (HL-60(TB) leukemia) [µM]	TGI (HL-60(TB) leukemia) [µM]
CC(=N\O)/C(C)=N/O.CC(=N\O)/C(C)=N/O.CC(=N\O)/C(C)=N/O.CC(=N\O)/C(C)=N/O.[Cu].[Cu]	20.3	38.3	24.7	64.8	16.8	30.5	34.3	91.9	19.2	35.6	17.6	31.3	17.8	32.2	20.8	37.2	18.4	32.8	26.4	44.4
Cn1cc(NC(=O)c2cc(NC(=O)Nc3cc(C(=O)Nc4cc(C(=O)NCCC(=N)N)n(C)c4)n(C)c3)cn2C)cc1C(=O)NCCC(=N)N	–	50	–	> 100	–	> 100	–	> 100	–	> 100	–	69.9	–	53.1	–	35.2	–	> 100	–	> 100
CNC(=O)c1c(NC(=O)c2cccc(C(F)(F)F)c2)sc2c1CCC(=O)C2	0.324	> 100	1.94	> 48.6	0.656	2.52	0.135	> 100	0.199	1.59	0.259	2.73	0.462	1.66	0.339	1.67	0.383	2.58	0.318	1.98
Cc1[nH]c(C(=O)Nc2ccc(C(=O)N3CCNCC3)cc2OC(C)C)c(Cl)c1Cl	2.25	5.32	1.81	4.65	1.78	3.38	2.15	4.71	1.85	3.41	1.77	3.46	1.73	3.13	1.73	3.19	1.62	6.07	2.21	4.44
COc1ccc(Nc2ccnc(NCCNc3ccnc4cc(Cl)ccc34)n2)cc1	3.54	17.3	3.56	18.4	1.5	3.48	1.32	4.75	0.533	3.78	1.69	5.22	1.55	2.95	1.59	3.2	1	6.34	2.48	7.06
O=c1[nH]cnc2c1nnn2C1OC(CO)C(O)C1O (stereo not given)	0.683	> 100	2.67	> 100	2.65	24.5	3.97	> 100	3.88	> 100	20.4	> 100	5.59	30.3	4.06	63.8	1.66	> 100	0.617	> 43.9
CC1=C(SCc2ccccc2)C(=O)c2ccccc2C1=O	–	38.8	–	33.5	–	57	–	> 100	–	18.2	–	33.5	–	31	–	30	–	19	–	> 100
CCN(CC)CCOc1ccc(Nc2ncc3cc(-c4c(Cl)cccc4Cl)c(=O)n(CCOC)c3n2)cc1	0.2	3.95	0.0715	7.05	1.25	3.57	0.005	18.2	0.159	1.16	0.608	5	1.51	5.94	0.0557	0.821	0.0163	0.322	0.496	2.06
Nc1c(C(=O)c2cccc(-c3ccc[n+]([O-])c3)c2)cnn1-c1ccc(F)cc1F	> 25	> 25	> 25	> 25	> 25	> 25	> 25	> 25	> 25	> 25	> 25	> 25	> 25	> 25	> 25	> 25	> 25	> 25	> 25	> 25
O=C1c2ccccc2-c2c1c1ccc([N+](=O)[O-])cc1c(=O)n2CCNCCCNCCn1c2c(c3ccc([N+](=O)[O-])cc3c1=O)C(=O)c1ccccc1-2	0.0989	8.76	0.742	7.51	0.992	13.3	0.0492	28.2	0.129	4.5	0.166	3.63	0.347	7.51	0.872	6.04	0.803	4.16	1.5	50
OCCCCC#Cc1ccccc1C#Cc1ccccc1F	20.8	47.9	12	26.1	17.8	33	23.2	47.2	16.2	29.9	16	33.6	23.6	52.3	22	48.4	22	64.2	22.2	44.9
CC1=C(C)CC2(SC1)C(=O)c1ccccc1C2=O	–	> 100	–	> 100	–	> 100	–	> 100	–	> 100	–	> 100	–	> 100	–	> 100	–	> 100	–	> 100
COc1ccccc1/C=C1\CCC(CNc2ccc(Cl)cc2)C1=O (stereo not given)	–	20.7	–	22.9	–	18.8	–	19	–	19.1	–	23.2	–	18.4	–	16	–	30.6	–	13.9
